# Reference: US12370197B2, “Combination product of a Bcl-2/Bcl-xL inhibitor and a chemotherapeutic agent and use thereof in the prevention and/or treatment of diseases” (ASCENTAGE PHARMA (SUZHOU) CO., LTD., priority 2019, dated 2025)
# Several values for one entry are separate records, joined by “and”; a condition that tells them apart may be missing. Equal values may be shown once. Entries after “also recorded” stand apart in the source; their conditions may differ.
# Key:
# OCI-AML-3 cells [1] = assay: Annexin V-PI apoptosis flow cytometry, OCI-AML-3; type: cell-based, human; settings: 24 h, Compound 6 10 nM, HHT 30 nM, alone or combined
# Method: (§1) In the antiproliferative tests, cells were plated in 96-well plates (Corning, Cat. 3903) at 10000 cells/well/cell line. In the apoptosis assay, cells were plated in 24-well plates (Corning, Cat. 3524) at 200000 cells/well/cell line.
# [Experimental Methods]: Flow Cytometer Analysis
# Cells were harvested after 24 hours of treatment with Compound 6 alone, HHT alone, or the combination of both, and washed once with phosphate buffered saline (PBS). Cells were stained with Annexin-V and PI and analyzed using an Attune NxT flow cytometer. Apoptosis profiles were obtained by analyzing 20000 cells per experimental condition.
# Apoptosis was detected using Annexin V-PI (propidium iodide) staining kit according to the manufacturer's instructions. After treating the cells MV-4-11, OCI-AML-3 and SKM-1 with 10 nM Compound 6 alone, 10 nM or 30 nM HHT alone or the combination of both for 24 hours, the cells were harvested and washed once with PBS. Cells were bi-color stained with Annenix V-FITC and PI. After staining was complete, analysis was performed using an Attune NxT flow cytometer. Apoptosis profiles were obtained by analyzing 20000 cells per experimental condition.
# MCL-1 = assay: Western Blot assay, MCL-1; type: cell-based, human; settings: MV-4-11, OCI-AML-3 and SKM-1 cells, 4 h; 10 nM Compound 6, 10 nM or 30 nM HHT
# Method: [Experimental Methods]: Western Blot Assay
# Western Blot assay was performed after 4 hours treatment of cells in logarithmic growth phase with Compound 6, HHT, either alone or in combination.
# After 4 hours of interaction with 10 nM Compound 6 in combination with 10 nM or 30 nM HHT, cells were harvested and washed once with pre-cooled PBS. The cell pellets were lysed using RIPA lysate containing 1% PMSF and 1% protease inhibitor. The protein concentration was detected by using a BCA protein concentration detection kit. Cell lysates (20-50 μg) were separated by 4-20% SDS-PAGE. The separated proteins were transferred to PVDF membranes which were blocked using 1% BSA (bovine serum albumin) buffer at room temperature for 1 hours before incubated in a shaker at 4° C. overnight with primary antibody diluted in 1×TBST (Tris-Buffered Saline Tween-20) containing 1% BSA. The membranes were washed 3 times with 1×TBST each for 10 minutes, and then were incubated for 1 hour at room temperature using horseradish peroxidase (HRP)-tagged secondary antibodies (goat anti-rabbit-HRP (Yeasen, Cat. #33101ES60) and goat anti-mouse-HRP (Yeasen, Cat. #33201ES60), diluted according to the manufacturer's instructions). The membranes were washed 3 times with 1×TBST each for 10 minutes. HRP substrate was added onto the PVDF membrane. […]
# OCI-AML-3 AML xenograft = assay: human OCI-AML-3 AML xenograft model in mice; type: in vivo, mouse; settings: female NOD SCID mice, s.c. OCI-AML-3; Compound 6 50 mg/kg oral once daily 14 days; HHT 0.75 mg/kg i.p. once daily 7 days from D2; day 15
# Method: Treatment was initiated on the grouping day (D1). […] HHT was intraperitoneally injected once daily from D2 and continued for consecutive 7 days. The tumor sizes (caliper) and animal body weights were measured twice a week.
# MV-4-11 AML xenograft = assay: human MV-4-11 AML xenograft model in mice; type: in vivo, mouse; settings: for mRECIST: MV-4-11 xenograft, animals with response / animals in group; for RTV (D22) (Mean ± SEM) / T/C (%) (D22): female BALB/c Nude mice, s.c. MV-4-11, Compound 6 or ABT-199 50 mg/kg oral once daily 21 days, HHT 1 mg/kg i.p. once daily 14 days, day 22
# Method: Treatment was initiated on the day of grouping (Day 1). […] HHT was intraperitoneally administered once daily for consecutive 14 days. The tumor sizes (caliper) and animal body weights were measured twice a week.
# MV-4-11 cells = assay: CellTiter-Glo luminometric cell viability assay (CTG), MV-4-11; type: cell-based, human
# Method: as §1
# (§2) For combination tests, the results were further analyzed using the CalcuSyn program to calculate a Combination Index (CI) (Chou, T. C. (2010) “Drug combination studies and their synergy quantification using the Chou-Talalay method.”, Cancer Res 70(2): 440-446). […]
# (§3) The anti-proliferation effects of the test sample in three AML/MDS cell lines, namely MV-4-11 (Compound 6 sensitive cell line), OCI-AML-3 (Compound 6 non-sensitive cell line) and SKM-1 (Compound 6 non-sensitive cell line), were determined by quantifying ATP using CellTiter-Glo luminescence cell viability detection kits, according to the manufacturer's instructions.
# (§4) First, cells in the logarithmic growth phase were collected, centrifuged, and the cell suspension was counted and diluted/adjusted to the desired concentration. […] More than 3 blank control wells containing only medium (100 μL/well) without cells were set on the same plate to obtain background luminescence, and cell control wells, i.e., wells containing cells but treated with vehicle control, were set. […]
# (§5) Luminescence signals were detected using a Biotek synergy H1 microplate reader. […]
# SKM-1 cells = assay: CellTiter-Glo luminometric cell viability assay (CTG), SKM-1; type: cell-based
# Method: as §1, §2, §3, §4, §5
# OCI-AML-3 cells [2] = assay: CellTiter-Glo luminometric cell viability assay (CTG), OCI-AML-3; type: cell-based, human
# Method: as §1, §2, §3, §4, §5
smiles,measurement,setting,value
"COC(=O)C[C@](O)(CCCC(C)(C)O)C(=O)O[C@@H]1C(OC)=C[C@]23CCCN2CCc2cc4c(cc2[C@H]13)OCO4 [HHT, homoharringtonine]",apoptosis (Annexin V+ cells),OCI-AML-3 cells [1],25.0%
same,expression level of anti-apoptosis protein MCL-1,MCL-1,reduce the expression level
same,RTV(D15) (Mean ± SEM),OCI-AML-3 AML xenograft,13.89 ± 0.82
same,T/C (%) (D15),OCI-AML-3 AML xenograft,66.77%
same,mRECIST,MV-4-11 AML xenograft,"3/5 SD and 3/5 SD, 2/5 PD"
same,RTV (D22) (Mean ± SEM),MV-4-11 AML xenograft,4.32 ± 1.42
same,T/C (%) (D22),MV-4-11 AML xenograft,32.43%
"O=C(NS(=O)(=O)c1ccc(NC[C@H]2COCCO2)c([N+](=O)[O-])c1)c1ccc(N2CCN(CC3=C(c4ccc(Cl)cc4)CC4(CCC4)CC3)CC2)cc1Oc1cnc2[nH]ccc2c1 [Compound 6, (S)-N-((4-(((1,4-dioxan-2-yl)methyl)amino)-3-nitrophenyl)sulfonyl)-2-((1H-pyrrolo[2,3-b]pyridin-5-yl)oxy)-4-(4-((6-(4-chlorophenyl)spiro[3.5]non-6-en-7-yl)methyl)piperazin-1-yl)benzamide]",apoptosis (Annexin V+ cells),OCI-AML-3 cells [1],12.1%
same,sensitivity of the cell line to Compound 6,MV-4-11 cells,sensitive; also recorded: moderate sensitivity
same,sensitivity of the cell line to Compound 6,SKM-1 cells,non-sensitive
same,sensitivity of the cell line to Compound 6,OCI-AML-3 cells [2],non-sensitive
same,RTV(D15) (Mean ± SEM),OCI-AML-3 AML xenograft,12.77 ± 1.51
same,T/C (%) (D15),OCI-AML-3 AML xenograft,61.36%
same,mRECIST,MV-4-11 AML xenograft,no CR or PR and 6/6 PD
same,RTV (D22) (Mean ± SEM),MV-4-11 AML xenograft,8.36 ± 0.76
same,T/C (%) (D22),MV-4-11 AML xenograft,62.76%
CC1(C)CCC(CN2CCN(c3ccc(C(=O)NS(=O)(=O)c4ccc(NCC5CCOCC5)c([N+](=O)[O-])c4)c(Oc4cnc5[nH]ccc5c4)c3)CC2)=C(c2ccc(Cl)cc2)C1 [ABT-199],mRECIST,MV-4-11 AML xenograft,no CR or PR and 6/6 PD
same,RTV (D22) (Mean ± SEM),MV-4-11 AML xenograft,11.77 ± 1.94
same,T/C (%) (D22),MV-4-11 AML xenograft,88.27%
